Measured values taken from US11753407B2, “Compounds for treating spinal muscular atrophy” (PTC Therapeutics, Inc., priority 2012, dated 2023).

What was measured:
[1] = test system: Smn protein in SMA patient fibroblast cells (GM03813); assay: Smn protein assay in cultured cells (SMN HTRF); type: cell-based, human; conditions: SMA patient fibroblast cells, 48 hours; for EC1.5x for Smn protein expression: 7-point concentration curve, SMN HTRF, concentration producing 1.5 times Smn protein vs DMSO vehicle control; for maximum fold (Fold) increase of Smn protein: 7-point concentration data, fold relative to vehicle control
In short: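 Cells were cultured 72 h, seeded at 5,000/well and dosed with seven concentrations (3.16-fold apart) for 48 h. HTRF on lysates, read at 665 and 620 nm, gave blank-corrected ΔF values relative to DMSO. Potency is reported as EC1.5×, efficacy as maximal fold Smn increase.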

[2] = test system: SMN2 minigene mRNA (SMN2-A minigene) in HEK293H cells; assay: SMN2 minigene mRNA splicing RT-qPCR assay in cultured cells; type: cell-based, human; conditions: Homo sapiens, HEK293-H; concentration increasing full length SMN2 mRNA 1.5-fold relative to vehicle-treated cells; HEK293H cells with SMN2-A minigene, 24 hours, 7-point concentration data; read-out: EC1.5x for production of full length SMN2 mRNA
In short: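 EC1.5× values derive from a 24 h treatment of SMN2-A minigene HEK293H cells and GAPDH-normalized RT-qPCR of exon 7-included minigene mRNA relative to vehicle-treated cells.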

melting point [°C] | SMILES | EC1.5x for Smn protein expression [1] | maximum fold (Fold) increase of Smn protein [1] | EC (1.5-fold increase) [2] [µM]
279 to 282 | Cc1cn2cc(-c3cc(=O)n4cc(N5CCN(C)[C@H](C)C5)ccc4n3)cc(F)c2n1 [Compound 296, 7-[(3R)-3,4-dimethylpiperazin-1-yl]-2-(8-fluoro-2-methylimidazo[1,2-a]pyridin-6-yl)-4H-pyrido[1,2-a]pyrimidin-4-one] | **** (an EC1.5x≤0.3 μM is indicated by four stars (****)) | ***** (a fold increase >1.65 is indicated by five stars (*****)) | < 0.1
250 to 257 | Cc1cn2cc(-c3cc(=O)n4cc(N5CCC(N(C)C)CC5)ccc4n3)cc(F)c2n1 [Compound 297, 7-[4-(dimethylamino)piperidin-1-yl]-2-(8-fluoro-2-methylimidazo[1,2-a]pyridin-6-yl)-4H-pyrido[1,2-a]pyrimidin-4-one] | **** (an EC1.5x≤0.3 μM is indicated by four stars (****)) | ***** (a fold increase >1.65 is indicated by five stars (*****)) | < 0.1
157 to 160 | COc1ccc(-c2ccc3nc(N4CCC(N(C)C)CC4)cc(=O)n3c2)cc1F [Compound 298, 2-[4-(dimethylamino)piperidin-1-yl]-7-(3-fluoro-4-methoxyphenyl)-4H-pyrido[1,2-a]pyrimidin-4-one] |  | *** (a fold increase between >1.35 and ≤1.5 is indicated by three stars (***)) | 0.3 to 1
194 to 201 | COc1ccc(-c2cc(=O)n3cc(N4C[C@H]5CCCN[C@H]5C4)ccc3n2)cc1F [Compound 301, 2-(3-fluoro-4-methoxyphenyl)-7-[(4aR,7aR)-octahydro-6H-pyrrolo[3,4-b]pyridin-6-yl]-4H-pyrido[1,2-a]pyrimidin-4-one] |  | * (A maximum fold increase of ≤1.2 is indicated by one star (*)) | 1 to 3
184 to 186 | Cc1nc2c(F)cc(-c3cc(=O)n4cc(N5CCNCC5)ccc4n3)cc2o1 [Compound 305, 2-(4-fluoro-2-methyl-1,3-benzoxazol-6-yl)-7-(piperazin-1-yl)-4H-pyrido[1,2-a]pyrimidin-4-one] | **** (an EC1.5x≤0.3 μM is indicated by four stars (****)) | ***** (a fold increase >1.65 is indicated by five stars (*****)) | < 0.1
194 to 196 | Cc1nc2c(F)cc(-c3cc(=O)n4cc(N5CCN(C)[C@@H](C)C5)ccc4n3)cc2o1 [Compound 307, 7-[(3S)-3,4-dimethylpiperazin-1-yl]-2-(4-fluoro-2-methyl-1,3-benzoxazol-6-yl)-4H-pyrido[1,2-a]pyrimidin-4-one] | **** (an EC1.5x≤0.3 μM is indicated by four stars (****)) | **** (a fold increase between >1.5 and ≤1.65 is indicated by four stars (****)) | < 0.1
212 to 214 | CCN1CCN(c2ccc3nc(-c4cc(F)c5nc(C)oc5c4)cc(=O)n3c2)CC1 [Compound 309, 7-(4-ethylpiperazin-1-yl)-2-(4-fluoro-2-methyl-1,3-benzoxazol-6-yl)-4H-pyrido[1,2-a]pyrimidin-4-one] | **** (an EC1.5x≤0.3 μM is indicated by four stars (****)) | **** (a fold increase between >1.5 and ≤1.65 is indicated by four stars (****)) | < 0.1
175 to 178 | CCCN1CCN(c2ccc3nc(-c4cc(F)c5nc(C)oc5c4)cc(=O)n3c2)CC1 [Compound 310, 2-(4-fluoro-2-methyl-1,3-benzoxazol-6-yl)-7-(4-propylpiperazin-1-yl)-4H-pyrido[1,2-a]pyrimidin-4-one] | *** (an EC1.5× between >0.3 μM and ≤1 μM is indicated by three stars (***)) | *** (a fold increase between >1.35 and ≤1.5 is indicated by three stars (***)) | < 0.1
157 to 167 | CCN1C[C@@H]2CN(c3ccc4nc(-c5ccc(OC)c(F)c5)cc(=O)n4c3)C[C@@H]2C1 [Compound 311, 7-[(3aR,6aS)-5-ethylhexahydropyrrolo[3,4-c]pyrrol-2(1H)-yl]-2-(3-fluoro-4-methoxyphenyl)-4H-pyrido[1,2-a]pyrimidin-4-one] |  | ** (a fold increase between >1.2 and ≤1.35 is indicated by two stars (**)) | 0.1 to 0.3
223 to 227 | COc1ccc(-c2cc(=O)n3cc(N4C[C@H]5CCCN(C)[C@H]5C4)ccc3n2)cc1F [Compound 313, 2-(3-fluoro-4-methoxyphenyl)-7-[(4aR,7aR)-1-methyloctahydro-6H-pyrrolo[3,4-b]pyridin-6-yl]-4H-pyrido[1,2-a]pyrimidin-4-one] |  | * (A maximum fold increase of ≤1.2 is indicated by one star (*)) | 1 to 3
177 to 184 | COc1ccc(-c2cc(=O)n3cc(N4CCN[C@H](C)C4)cc(C)c3n2)cc1OC [Compound 314, 2-(3,4-dimethoxyphenyl)-9-methyl-7-[(3R)-3-methylpiperazin-1-yl]-4H-pyrido[1,2-a]pyrimidin-4-one] | *** (an EC1.5× between >0.3 μM and ≤1 μM is indicated by three stars (***)) | **** (a fold increase between >1.5 and ≤1.65 is indicated by four stars (****)) | < 0.1
278 to 281 | COc1ccc(-c2ccc3nc(C4CCNCC4)cc(=O)n3c2)cc1F [Compound 316, 7-(3-fluoro-4-methoxyphenyl)-2-(piperidin-4-yl)-4H-pyrido[1,2-a]pyrimidin-4-one] | ** (an EC1.5× between >1 μM and ≤3 μM is indicated by two stars (**)) | ***** (a fold increase >1.65 is indicated by five stars (*****)) | 0.1 to 0.3

SMILES | melting point [°C] | EC1.5x for Smn protein expression [1] | maximum fold (Fold) increase of Smn protein [1] | EC (1.5-fold increase) [2] [µM]
Cc1nc2c(F)cc(-c3cc(=O)n4cc(C5=CCNCC5)ccc4n3)cc2o1 [Compound 299, 2-(4-fluoro-2-methyl-1,3-benzoxazol-6-yl)-7-(1,2,3,6-tetrahydropyridin-4-yl)-4H-pyrido[1,2-a]pyrimidin-4-one] | 177 to 180 | **** (an EC1.5x≤0.3 μM is indicated by four stars (****)) | ***** (a fold increase >1.65 is indicated by five stars (*****)) | < 0.1
Cc1nc2c(F)cc(-c3cc(=O)n4cc(C5=CCN(C)CC5)ccc4n3)cc2o1 [Compound 300, 2-(4-fluoro-2-methyl-1,3-benzoxazol-6-yl)-7-(1-methyl-1,2,3,6-tetrahydropyridin-4-yl)-4H-pyrido[1,2-a]pyrimidin-4-one] | 178 to 181 | **** (an EC1.5x≤0.3 μM is indicated by four stars (****)) | ***** (a fold increase >1.65 is indicated by five stars (*****)) | < 0.1
Cc1nc2ccc(-c3cc(=O)n4cc(C5=CCN(C)CC5)ccc4n3)cc2o1 [Compound 303, 2-(2-methyl-1,3-benzoxazol-6-yl)-7-(1-methyl-1,2,3,6-tetrahydropyridin-4-yl)-4H-pyrido[1,2-a]pyrimidin-4-one] | 132 to 135 | **** (an EC1.5x≤0.3 μM is indicated by four stars (****)) | **** (a fold increase between >1.5 and ≤1.65 is indicated by four stars (****)) | < 0.1
CCN1CC=C(c2ccc3nc(-c4ccc5nc(C)oc5c4)cc(=O)n3c2)CC1 [Compound 304, 7-(1-ethyl-1,2,3,6-tetrahydropyridin-4-yl)-2-(2-methyl-1,3-benzoxazol-6-yl)-4H-pyrido[1,2-a]pyrimidin-4-one] | 128 to 131 | **** (an EC1.5x≤0.3 μM is indicated by four stars (****)) | ***** (a fold increase >1.65 is indicated by five stars (*****)) | < 0.1
COc1ccc(-c2cc(=O)n3cc(C4=CCNCC4)cc(C)c3n2)cc1F [Compound 312, 2-(3-fluoro-4-methoxyphenyl)-9-methyl-7-(1,2,3,6-tetrahydropyridin-4-yl)-4H-pyrido[1,2-a]pyrimidin-4-one] | 211 to 215 | **** (an EC1.5x≤0.3 μM is indicated by four stars (****)) | **** (a fold increase between >1.5 and ≤1.65 is indicated by four stars (****)) | < 0.1
COc1ccc(-c2cc(=O)n3cc(C4=CCN(C)CC4)cc(C)c3n2)cc1F [Compound 315, 2-(3-fluoro-4-methoxyphenyl)-9-methyl-7-(1-methyl-1,2,3,6-tetrahydropyridin-4-yl)-4H-pyrido[1,2-a]pyrimidin-4-one] | 184 to 190 |  | *** (a fold increase between >1.35 and ≤1.5 is indicated by three stars (***)) | < 0.1
